Reference: paper PMC6383986, “Fragment-Based Covalent Ligand Screening Enables Rapid Discovery of Inhibitors for the RBR E3 Ubiquitin Ligase HOIP” (Journal of the American Chemical Society, 2019)
Entries after “also recorded” stand apart in the source; their conditions may differ.

Biological target: T1, HOIP RBR domain (Homo sapiens, UniProt Q96EP0)
T1 construct: made in house; host or cells: E. coli BL21-GOLD(DE3)
T1 sequence (Q96EP0 697-1072): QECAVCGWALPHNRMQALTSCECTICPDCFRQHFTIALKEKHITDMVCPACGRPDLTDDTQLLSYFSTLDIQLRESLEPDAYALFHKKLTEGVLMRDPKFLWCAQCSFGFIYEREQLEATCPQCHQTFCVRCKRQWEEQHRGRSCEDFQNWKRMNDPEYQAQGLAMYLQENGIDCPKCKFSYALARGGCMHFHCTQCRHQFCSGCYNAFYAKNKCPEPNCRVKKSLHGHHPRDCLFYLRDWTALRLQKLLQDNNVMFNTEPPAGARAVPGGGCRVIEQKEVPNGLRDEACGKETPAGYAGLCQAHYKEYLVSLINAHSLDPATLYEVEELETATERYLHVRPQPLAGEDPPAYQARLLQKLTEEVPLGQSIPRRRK
Assay: In vitro polyubiquitination assay
Format: biochemical
Conditions: HOIP RBR preincubated with compound (200 μM) overnight; E2 UbcH7 or UbcH5c; vs DMSO
Description: 4.3 Polyubiquitination assay
The ubiquitination assay was essentially carried out as previously described.12 The HOIP RBR domain was pre-incubated with compounds (5) or (6), or DMSO in 50 mM HEPES, 150 mM NaCl, pH 7.5 buffer at 23 °C with gentle shaking for overnight (20-24 h). E1, E2 (UbcH7 or UbcH5c), ubiquitin, and MgCl2 were added to each vial, and aliquots of 15 µL were withdrawn to mark time zero. ATP was then added and aliquots of 15 µL were withdrawn after 5, 15, 30, and 60 min incubation. Final concentrations: E1 (1 µM), E2 (5 µM), E3 (5 µM), compounds (200 µM), DMSO (1%), ubiquitin (40 µM), MgCl2 (20 mM), ATP (10 mM); reaction volume 100 µL. The aliquots were analyzed by SDS PAGE (Figure 4A and Supplementary Figure S9) as described below (section

COC(=O)/C=C/CNC(=O)c1cc2c([nH]c1=O)CCC2 [Compound 5]
polyubiquitin chain formation: fully abolished chain formation; also recorded: complete inhibition of polyubiquitin chain formation
